The values below come from US20110178023A1, “Use Of SCO-Spondin Peptides For Inhibiting Or Preventing Neuronal Apoptosis Mediated By Cell Death Receptor Ligands” (Institut National de la Sante et de la Recherche Medicale …, priority 2007, published 2011).

This experiment concerns embryonic rat hippocampal cells. The experiment in a line: Apoptosis detection (TUNEL, DAPI counter-staining) in treated hippocampal cell cultures. Conditions: for apoptosis induced by cell death receptor pathway (Fas, TRAIL-R) in hippocampal cells: TSR peptide added to culture medium, 7 days of treatment; for number of apoptotic cells with death receptor ligand alone: FasL 20 ng/mL or TRAIL 80 ng/mL alone. The format is cell-based. Here is the method:
FIG. 2: Histogramm representing the percentage of apoptotic cells outside the clusters compared with the total number of cells, data provided by only one experiment realized in triplicate. In each assay, apoptotic labelling with TUNEL method were counted on 4 photos aleatory on each slide, and having always at least 1 neurosphere. The cultures were treated (cases TSR, FasL, TSR+FasL, TRAIL, TSR+TRAIL, FasL+TRAIL and TSR+FasL+TRAIL) or not treated (control, c) during 7 days with a TSR peptide concentration of 375 μg/mL and/or 20 ng/mL of FasL and/or 80 ng/mL of TRAIL).
Cultures of hippocampal cells from foetal rats: Cells were obtained from E18 rat brains. Tissues were removed in dissection medium (Hank's Balanced Salt Solution, HBSS plus antibiotics). Composition of dissection medium HBSS plus antibiotics): • potassium chloride (KCl): 400 mg/L • potassium phosphate (KH2PO4): 60 mg/L • sodium bicarbonate (NaHCO3): 350 mg/L • sodium chloride (NaCl): 8000 mg/L • sodium phosphate (Na2HPO4): 48 mg/L • D-glucose: 1000 mg/L • penicillin-streptomycin: 100 units/mL
Meninges were removed from the embryos brains and hippocampus was dissected in a sterile petri dish in HBSS plus antibiotic medium. After centrifugation cells were ressuspended in culture medium MEM with Earl Salts supplemented with B27, EGF, FGF-2 and antibiotics. The composition of the culture medium was the following: • L-arginine hydrochloride: […] • L-cystine: 24 mg/L • L-glutamine: 292 mg/L • L-histidine-H2O Hydrochloride: 42 mg/L • L-isoleucine: 52 mg/L • L-leucine 52 mg/L • L-lysine Hydrochloride: 73 mg/l, • L-methionine: 15 mg/L • L-phenylalanine: 32 mg/L • L-threonine: 48 mg/L • L-tryptophane: 10 mg/L • L-tyrosine: 36 mg/L • L-valine: 46 mg/L • choline Chloride: 1 mg/L • D-calcium pantothenate: 1 mg/L • folic acid: 1 mg/L • I-inositol: 2 mg/L • Niacinamide: 1 mg/L • pyridoxal Hydrochloride: 1 mg/L • Riboflavine: 0.1 mg/L • thiamine Hydrochloride: 1 mg/L • calcium chloride (CaCl2-2H2O): 264 mg/L • magnesium sulfate (MgSO4-7H2O): 200 mg/L • potassium chloride (KCl): 400 mg/L • sodium bicarbonate (NaHCO3): 2200 mg/L • sodium chloride (NaCl): 6800 mg/L • sodium phosphate (NaH2PO4-2H2O): 158 mg/L • D-glucose: 4500 mg/L • phenol red: 10 mg/L • Sodium pyruvate: 110.04 mg/L • B27 medium (Invitrogen) 50×: 2% v/v • EGF: 20 μg/L • FGF-2: 20 μg/L • Penicillin-streptomycin: 100 units/mL
Hippocampus fragments were dissociated mechanically with 1 syringe 1 ml and 1 needle 25G and added with 1 mL of culture medium then centrifuged at 1200 rpm for 10 min. The supernatant is then removed and the cell pellet is resupended in 1 mL of culture medium. Other mechanic dissociation was performed with a seringe 1 mL and a needle 25G. Cell count was determined with Malassez hemocytometer and viability of cells was evaluated by counting the cells which have not absorbed the Trypan blue. Then cells are seeded in 48-well plates, at 40 000 cells by well in 500 μL of culture medium, on culture dishes precovered with collagen.
Preparation of precovered dishes with collagen: After an incubation of 10 min in absolute ethanol, the glass dishes were sterilized by heating 2H at 120° C. Sterilized glass dishes (10 mm diameter) was put on culture well and covered with a 0.1 mg/mL collagen calf skin solution. After 1 hr incubation at 37° C., the excess of solution is removed and the plate is maintained one night under hood of culture in order to let dry the plates. Before use, the wells were washed twice with 200 μL sterile distillated water.
Treatment of embryonic rat hippocampal cells: After 5 days of culture, cells were cultured in medium without growth factors (MEM with Earl salts, B27 and antibiotics) with different conditions of treatment combinating TSR peptide (WSGWSSCSRSCG—SEQ ID No 8) (375 μg/mL), FasL (20 ng/mL) and TRAIL (80 ng/mL). […]

In the case of “WSGWSSCSRSCG [TSR peptide, peptide derived from the TSR (thrombospondin type 1 units) of SCO-spondin]”, the “apoptosis induced by cell death receptor pathway (Fas, TRAIL-R) in hippocampal cells” value was “inhibits the apoptosis”. For the same molecule, under “TSR peptide 375 μg/mL + FasL 20 ng/mL, 7 days, compared to FasL culture, FIG. 2”, the “number of apoptotic cells, apoptosis induced by FasL” value is listed as “decreased”. Also, for the setting “TSR peptide 375 μg/mL + TRAIL 80 ng/mL, 7 days, compared to TRAIL culture, FIG. 2”, the “number of apoptotic cells, apoptosis induced by TRAIL” value is “decreased in the presence of TSR peptide to a level comparable to control cells”. In addition, the “level of apoptosis (final statement, presumably FasL+TRAIL culture)” value (TSR peptide 375 μg/mL, 7 days, FIG. 2, inducer not given) is given as “restores the basal level of apoptosis”. Also, the “apoptosis induced by cell death receptor pathway (Fas, TRAIL-R) in hippocampal cells” value (listed as peptide TSR) is “decreased”. Further, the “effect on basal apoptosis (number of apoptotic cells)” value (TSR peptide alone 375 μg/mL, 7 days, compared to control cultures, FIG. 2) was “no effect”.

B1: FasL: Fas ligand, cell death receptor ligand of the TNF superfamily used to induce apoptosis (protein, UniProt P48023 130-281, looked up)
Tumor necrosis factor ligand …: QIGHPSPPPEKKELRKVAHLTGKSNSRSMPLEWEDTYGIVLLSGVKYKKGGLVINETGLYFVYSKVYFRGQSCNNLPLSHKVYMRNSKYPQDLVMMEGKMMSYCTTGQMWARSSYLGAVFNLTSADHLYVNVSELSLVNFEESQTFFGLYKL
For B1, the “number of apoptotic cells with death receptor ligand alone” value (7 days, FIG. 2) is “increased”.

B2: TRAIL: TNF-related apoptosis inducing ligand, cell death receptor ligand used to induce apoptosis (protein, UniProt P50591 1-281, looked up)
Tumor necrosis factor ligand …: MAMMEVQGGPSLGQTCVLIVIFTVLLQSLCVAVTYVYFTNELKQMQDKYSKSGIACFLKEDDSYWDPNDEESMNSPCWQVKWQLRQLVRKMILRTSEETISTVQEKQQNISPLVRERGPQRVAAHITGTRGRSNTLSSPNSKNEKALGRKINSWESSRSGHSFLSNLHLRNGELVIHEKGFYYIYSQTYFRFQEEIKENTKNDKQMVQYIYKYTSYPDPILLMKSARNSCWSKDAEYGLYSIYQGGIFELKENDRIFVSVTNEHLIDMDHEASFFGAFLVG
Turning to B2, where the note is “7 days, FIG. 2”, the “number of apoptotic cells with death receptor ligand alone” value is given as “more important than in the presence of FasL”.
